Data from patent US20220402867A1, “SULFO-SUBSTITUTED BIARYL COMPOUND OR SALT THEREOF, PREPARATION METHOD THEREFOR, AND USE THEREOF” (Shanghai Litedd Co., Ltd., priority 2019, published 2022).

Key:
[1] = Metabolic stability in human liver microsomes; format: in vitro ADME; conditions: for microsomal CLint: 0.5 mg protein/mL
Excerpt: (§1) According to standard methods of in vitro metabolic stability studies in the art, eg., the methods described in Kerns, Edward H. and Di Li (2008). Drug-like Properties: Concepts, Structure Design and Methods: from ADME to Toxicity Optimization. San Diego: Academic Press; Di, Li et al., Optimization of a Higher Throughput Microsomal Stability Screening Assay for Profiling Drug Discovery Candidates, J. Biomol. Screen. 2003, The method described in 8(4), 453, the liver microsomal metabolic stability test of the compounds of the present disclosure was carried out analogously as follows.
(§2) The incubation system contained 0.5 mg protein/mL microsomes, cofactors, and PBS, was pre-incubated at 37° C. for 3 min, and then added the substrate (i.e., the test compounds) to initiate the reaction. Samples were taken at 0, 1, 5, 10, 15, 20, 30 and 60 min from the start of the reaction, and an appropriate terminator was added to terminate the reaction.
(§3) The terminator was an ice acetonitrile solution containing 100 ng/mL tolbutamide and 100 ng/mL labetalol.
(§4) Sample treatment (n=3): each appropriate sample was added, vortexed and centrifuged at high speed. The supernatants were collected, and the substrate was detected by HPLC-MS/MS. The peak area at the 0 min was taken as 100%. The peak areas at other time points were converted to percentage of the remaining amount. The natural logarithms of the percentage of remaining amount at each time point was plotted against the incubation time, and the slope (−k) was calculated by linear regression. Then, Clint (uL/min/mg) and half-life (T½, min) of the compounds were calculated following the equation of the inherent clearance rate (Clint)=(k* volume of incubation solution)/mass of liver microsomes.

GST-RORγ LBD (263-509) = target: T1, GST-RORγ LBD (263-509) (Homo sapiens, UniProt P51449); experiment: TR-FRET assay of agonistic activity on RORγ receptor; format: biochemical; conditions: for EC50: TR-FRET, GST-RORγ LBD with Biotin-SRC1
T1 construct: GST-RORγ LBD ((263-509) (produced at ChemPartner))
T1 sequence (P51449 263-509): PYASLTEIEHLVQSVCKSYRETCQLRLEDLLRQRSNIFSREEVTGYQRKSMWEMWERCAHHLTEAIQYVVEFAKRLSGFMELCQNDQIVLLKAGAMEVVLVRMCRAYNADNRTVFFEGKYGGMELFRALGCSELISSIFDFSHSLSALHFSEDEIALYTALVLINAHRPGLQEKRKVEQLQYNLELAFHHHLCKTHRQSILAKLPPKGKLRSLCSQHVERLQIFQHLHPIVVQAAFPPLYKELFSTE
Experimental: A time-resolved fluorescence resonance energy transfer (TR-FRET) assay was used for the compounds of the present disclosure, to determine the agonistic activity of the compounds on the RORγ protein receptor. The agonistic activity is expressed by the concentration for 50% of maximal effect (EC50). The experiment was performed basically with reference to the methods described in ONCOIMMUNOLOGY, 2016, VOL. 5, NO. 12, e1254854.
1. Preparation of RORγ Basal Buffer
A 100 mL basal buffer was prepared, mixed homogeneously and stored for use;
The compounds of the examples shown in the table below were prepared into solutions with DMSO as the solvent, serially diluted at 3-fold dilution to 10 concentrations starting from 10 mM, and added to the corresponding wells of a 384-well plate with each concentration of each compound in duplicate;
a. A 75 nM solution of GST-RORγ LBD ((263-509) (produced at ChemPartner)) and a 4 nM solution of Biotin-SRC1 (Glsbiochem) were prepared with the above basal buffer. The two solutions were 1:1 mixed evenly, and 10 μL of the mixed solution was added into each well of the above 384-well plate. The plate was immediately centrifugated at 1000 rpm for 10 seconds; b. A 1 nM solution of Anti-GST Eu (Cisbio, #61GSTKLA) and a 50 nM solution of SA-APC (Cisbio, […]) were prepared with the above basal buffer. The two solutions were 1:1 mixed evenly, and 10 μL of the mixed solution was added into each well of the above 384-well plate. The plate was immediately centrifugated at 1000 rpm for 10 seconds; c. The resulting 384-well plate was incubated at room temperature for 15 minutes. Data were read on an Envision microplate reader, EC50 values and E max % were calculated.
a. Readings were taken at 665 nm and 615 nm wavelengths respectively on the Envision Microplate Reader, and the ratios between them were normalized. b. Calculation was carried out with the following equation: […]
wherein X is the reading of compounds, Min is the reading of the blank solution, and Max is the reading of 10 μM SRC. c. The concentration-response curve data were fitted by a four-parameter logistic nonlinear regression model, and Emax was the TOP value of the fitted curve.

[2] = Metabolic stability in mouse liver microsomes; format: in vitro ADME, CD-1 mice; conditions: for half-life: CD-1; for microsomal CLint: CD-1, 0.5 mg protein/mL
Excerpt: as §1, §2, §3, §4

[3] = target: T2, RORγt (RORγ-LBD chimeric receptor) (Homo sapiens, UniProt P51449); experiment: Luciferase reporter gene assay of RORγt agonistic activity in HEK293T cells; format: cell-based; design: Emax: dose or concentration left out as unconfirmed; conditions: for EC50: HEK293T, GAL4 luciferase reporter, read-out: EC50; for Emax: HEK-293T
T2 construct: host or cells: HEK293T
T2 sequence (P51449 269-508 limits assumed): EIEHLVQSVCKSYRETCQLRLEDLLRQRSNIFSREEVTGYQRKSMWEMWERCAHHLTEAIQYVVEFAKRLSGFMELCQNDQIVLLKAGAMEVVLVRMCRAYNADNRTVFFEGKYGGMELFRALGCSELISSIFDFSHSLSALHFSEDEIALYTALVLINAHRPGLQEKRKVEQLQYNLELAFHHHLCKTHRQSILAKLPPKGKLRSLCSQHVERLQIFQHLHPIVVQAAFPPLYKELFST
Excerpt: This assay was basically carried out according to the method described in the literature ONCOIMMUNOLOGY, 2016, VOL. 5, NO. 12, e1254854.
The RORγ-LBD coding sequence was inserted into pBIND plasmid (Promega, E1581). This expression vector and a reporter vector (pGL4.35 carrying a stably integrated luciferase reporter gene driven by GAL4 promoter) were co-expressed in HEK293T host cells. When the agonist binds to the corresponding chimeric receptor, the chimeric receptor binds to the GAL4 binding site on the reporter gene carrier and stimulates reporter gene expression. The agonistic activity of the compound on RORγ was determined according to the intensity of the chemiluminescence signal.
1.1 All test compounds were serially diluted at 3-fold dilution with DMSO, with 10 serial dilutions starting from 10 mM; LIT-00093 solution was prepared similarly. […] 1.4 The compound plate was sealed and shaken for 5 min.
Cells were cultured according to ATCC standard operation, and 6*10^6 HEK293T cells were seeded into 100 mm cell culture dishes, cultured overnight in a 37° C., 5% CO2 incubator, and then transfected. Compounds of corresponding concentrations were added for treatment, and the Steady-Glo™ kit (Lot E 2520) was used for further detection.
Chemiluminescence values were detected with Envision 2104; EC50 values were calculated.
% Activity was calculated with the following equation: […]
RLU: […] R L Upositive: average value of positive control R L Uvehicle: average value of negative control
The log values of the compound concentration and % Activity were fitted using Graphad 8.0, to calculate EC50s of the compounds.

[4] = Pharmacokinetic (PK) assay in mice; format: in vivo; conditions: CD-1 mice
Experimental: The PK of each compound was determined as follows: 6 CD-1 mice (obtained from Shanghai Lingchang Biotechnology Co., Ltd.) were divided into two groups, 3 mice in each group. One group was administered intravenously at a dose of 1 mg/kg, and the vehicle was 5% DMSO/40% PEG400/55% (20% 3-CD); one group was administered by oral gavage at a dose of 5 mg/kg, and the vehicle was DMSO/1% methylcellulose (1:99). Blood samples were collected from saphenous vein of lower leg in each group at 0, 0.083, 0.25, 0.5, 1, 2, 4, 6, 8 and 24 h after administration. Approximately 40 μL of the blood samples were collected into anticoagulant tubes containing EDTA-K2. Immediately after collection, the tubes were inverted at least 5 times to ensure uniform mixing, and then placed on ice. The blood samples collected at each time point were centrifuged at 4° C., 8000 rpm for 5 minutes to obtain plasma. Another 1.5 mL centrifuge tube was marked with the compound name, animal number, and time point, and the plasma was transferred to this tube. The plasma was stored at −80° C. until analysis.
Compound concentrations in plasma were determined by UPLC-MS/MS method, and the pharmacokinetic parameters were calculated by Phoenix WinNolin 6.4 pharmacokinetic software on the obtained data.

[5] = maximum activation rate, TOP of fitted curve

## CS(=O)(=O)c1ccc(-c2c(Cl)cc(NC(=O)Cc3ccc(S(C)(=O)=O)cn3)cc2Cl)cc1 [Example 10, N-(2,6-Dichloro-4′-(methylsulfonyl)-[1,1′-biphenyl]-4-yl)-2-(5-(methylsulfonyl)pyridin-2-yl)acetamide]
[1]
  half-life: > 2.42 h
  microsomal CLint: < 9.6 µL/min/mg
  % Remaining (T = 60 min): 92.5%
GST-RORγ LBD (263-509)
  EC50: 114 nM
GST-RORγ LBD (263-509); [5]
  Emax: 159%
[2]
  % Remaining (T = 60 min): 89.90%
  half-life: > 2.42 h
  microsomal CLint: < 9.6 µL/min/mg
[3]
  EC50: 1460 nM
  Emax: 59%

## CCS(=O)(=O)c1ccc(C(CO)C(=O)Nc2cc(Cl)c(-c3ccc(S(=O)(=O)C4CC4)cc3)c(Cl)c2)cc1 (centres unmarked) [Example 22-1, N-(2,6-Dichloro-4′-(cyclopropylsulfonyl)-[1,1′-biphenyl]-4-yl)-2-(4-(ethylsulfonyl)phenyl)-3-hydroxypropionamide]
GST-RORγ LBD (263-509)
  EC50: 7 nM
GST-RORγ LBD (263-509); [5]
  Emax: 179%
[3]
  EC50: 139 nM
  Emax: 73.8%

## CS(=O)(=O)c1ccc(CC(=O)Nc2cc(Cl)c(-c3ccc(S(C)(=O)=O)cc3)c(Cl)c2)cc1 [Example 7, N-(2,6-Dichloro-4′-(methylsulfonyl)-[1,1′-biphenyl]-4-yl)-2-(4-(methylsulfonyl)phenyl)acetamide]
[1]
  half-life: > 2.42 h
  microsomal CLint: < 9.6 µL/min/mg
  % Remaining (T = 60 min): 80.1%
GST-RORγ LBD (263-509)
  EC50: 10 nM
GST-RORγ LBD (263-509); [5]
  Emax: 169%
[2]
  % Remaining (T = 60 min): 88.20%
  half-life: > 2.42 h
  microsomal CLint: < 9.6 µL/min/mg
[3]
  EC50: 41 nM
  Emax: 39.4%

## COCC(C(=O)Nc1ccc(-c2ccc(S(=O)(=O)C3CC3)cc2)c(C(F)(F)F)c1)c1ccc(S(C)(=O)=O)cc1 (centres unmarked) [Example 42, N-(4′-(Cyclopropylsulfonyl)-2-(trifluoromethyl)-[1,1′-biphenyl]-4-yl)-3-methoxy-2-(4-(methylsulfonyl)phenyl)propionamide]
GST-RORγ LBD (263-509)
  EC50: 12.6 nM
GST-RORγ LBD (263-509); [5]
  Emax: 194%
[3]
  EC50: 105 nM
  Emax: 60.7%

## CCS(=O)(=O)c1ccc(CC(=O)Nc2cc(Cl)c(-c3ccc(S(=O)(=O)CC)cc3)c(Cl)c2)cc1 [Example 1, N-(2,6-Dichloro-4′-(ethylsulfonyl)-[1,1′-biphenyl]-4-yl)-2-(4-(ethylsulfonyl)phenyl)acetamide]
[1]
  half-life: 0.697 h
  microsomal CLint: 33.1 µL/min/mg
  % Remaining (T = 60 min): 32.4%
GST-RORγ LBD (263-509)
  EC50: 14.5 nM
GST-RORγ LBD (263-509); [5]
  Emax: 213%
[2]
  % Remaining (T = 60 min): 11.70%
  half-life: 0.342 h
  microsomal CLint: 67.6 µL/min/mg
[3]
  EC50: 47 nM
  Emax: 87.1%

## CS(=O)(=O)c1ccc(C(CO)C(=O)Nc2cc(Cl)c(-c3ccc(S(=O)(=O)C4CC4)cc3)c(Cl)c2)cc1 (single isomer, unassigned) [Example 37, (S)—N-(2,6-Dichloro-4′-(cyclopropylsulfonyl)-[1,1′-biphenyl]-4-yl)-2-(4-(methylsulfonyl)phenyl)-3-hydroxypropionamide or (R)—N-(2,6-dichloro-4′-(cyclopropylsulfonyl)-[1,1′-biphenyl]-4-yl)-2-(4-(methylsulfonyl)phenyl)-3-hydroxypropionamide]
[4]; IV 1 mg/kg, values marked **
  CL_obs: 7.21** mL/min/kg
[4]; mouse, plasma, IV 1 mg/kg
  AUC(0-t): 2170 ng·h/mL
  Cmax: 1320 ng/mL
  half-life: 2.2 h
[4]; mouse, plasma, IV 1 mg/kg, values marked *, read-out: Vss
  Vd: 1.27 L/kg
[4]; mouse, plasma, Po 5 mg/kg vs IV 1 mg/kg
  bioavailability: 15.8%
[4]; mouse, plasma, Po 5 mg/kg
  AUC(0-t): 1440 ng·h/mL
  Cmax: 294 ng/mL
  half-life: 2.6 h
GST-RORγ LBD (263-509)
  EC50: 27.4 nM
GST-RORγ LBD (263-509); [5]
  Emax %: 197.0%

## CS(=O)(=O)c1ccc(C(CO)C(=O)Nc2cc(Cl)c(-c3ccc(S(=O)(=O)C4CC4)cc3)c(Cl)c2)cc1 (centres unmarked) [Example 33, N-(2,6-Dichloro-4′-(cyclopropylsulfonyl)-[1,1′-biphenyl]-4-yl)-2-(4-(methylsulfonyl)phenyl)-3-hydroxypropionamide]
GST-RORγ LBD (263-509)
  EC50: 13.3 nM
GST-RORγ LBD (263-509); [5]
  Emax: 202%
[3]
  EC50: 93 nM
  Emax: 69.8%

## CCS(=O)(=O)c1ccc(CC(=O)Nc2cc(Cl)c(-c3ccc(S(=O)(=O)C(C)C)cc3)c(Cl)c2)cc1 [Example 3, N-(2,6-Dichloro-4′-(isopropylsulfonyl)-[1,1′-biphenyl]-4-yl)-2-(4-(ethylsulfonyl)phenyl)acetamide]
[1]
  half-life: 0.232 h
  % Remaining (T = 60 min): 4.6%
GST-RORγ LBD (263-509)
  EC50: 14 nM
GST-RORγ LBD (263-509); [5]
  Emax: 223%
[3]
  EC50: 14 nM
  Emax: 50.5%
